For 16 compounds, IC50 and GI50 results are on record in patent publication US20250084095A1, “Aminopyrimidine Derivatives as Cyclin-Dependent Kinase Inhibitors” (Accutar Biotechnology Inc., priority 2023, published 2025).

The test system of assay [1] is Phospho-Rb (Ser807/811) in MCF7 cells. Briefly: Phospho-Rb expression inhibition in MCF7 cells quantified by in cell Western. It counts as cell-based, human. The following applies: Homo sapiens, MCF7, 24 h, 24 hours, in cell Western, read-out: MCF7 pRb IC50. A digest of the protocol:
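MCF7 cells were seeded at 20,000/well, grown overnight, then treated 24 h at 37 °C with compound dilutions (0.1% DMSO from 1000× stocks). Fixed cells were co-stained for phospho-Rb Ser807/811 and total Rb. Near-infrared dual-channel in-cell Western imaging was the read-out.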

The test system of assay [2] is 22RV1 cells. Briefly: Cell growth inhibition of 22RV1 cells (CellTiter-Glo). The following applies: Homo sapiens, 22Rv1, 120 h, 5 days, CellTiter-Glo, read-out: 22RV1 Cell Growh GI50. The format is cell-based. The gist of the method:
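22RV1 cells were plated in RPMI1640 with FBS (20% in one version, 10% in the other) and dosed next day at various concentrations from DMSO stocks. After 5 days at 37 °C, viability was measured by CellTiter-Glo luminescence.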

A value given as a limit tells only on which side of the number the result lay.

By IC50 is commonly meant the concentration that gives 50% inhibition. What is called GI50 is the concentration at which growth is held to half of that of the control. As for `Cc1c(CN2C[C@H](C)OC2=O)n(C(C)C)c2cc(-c3nc(N[C@@H]4C[C@H]5CO[C@H](O5)[C@H]4O)ncc3F)ccc2c1=O` [Compound 212, (S)-3-((7-(5-fluoro-2-(((1S,3R,4S,5R)-4-hydroxy-6,8-dioxabicyclo[3.2.1]octan-3-yl)amino)pyrimidin-4-yl)-1-isopropyl-3-methyl-4-oxo-1,4-dihydroquinolin-2-yl)methyl)-5-methyloxazolidin-2-one], the IC50 in assay [1] lay in the range of 150 to 1000 nM. Also, the GI50 in assay [2] was > 3000 nM.

As for `Cc1c(C(=O)N2[C@@H](C)COC[C@@H]2C)n(C(C)C)c2cc(-c3nc(N[C@@H]4C[C@H]5CO[C@H](O5)[C@H]4O)ncc3Cl)ccc2c1=O` [Compound 213, 7-(5-chloro-2-(((1S,3R,4S,5R)-4-hydroxy-6,8-dioxabicyclo[3.2.1]octan-3-yl)amino)pyrimidin-4-yl)-2-((3S,5S)-3,5-dimethylmorpholine-4-carbonyl)-1-isopropyl-3-methylquinolin-4(1H)-one], the IC50 in assay [1] is > 1000 nM. The GI50 in assay [2] was > 3000 nM.

Take `Cc1c(C(=O)N2CCOCC2)n(C(C)C)c2cc(-c3nc(N[C@@H]4C[C@H]5CO[C@H](O5)[C@H]4O)ncc3Cl)ccc2c1=O` [Compound 214, 7-(5-chloro-2-(((1S,3R,4S,5R)-4-hydroxy-6,8-dioxabicyclo[3.2.1]octan-3-yl)amino)pyrimidin-4-yl)-1-isopropyl-3-methyl-2-(morpholine-4-carbonyl)quinolin-4(1H)-one]: in assay [1], the IC50 was > 1000 nM. Further, the GI50 in assay [2] is > 3000 nM.

Turning to `Cc1c(-c2nc(N[C@@H]3C[C@H]4CO[C@H](O4)[C@H]3O)ncc2F)sc2cc(CN3[C@@H](C)COC[C@@H]3C)n(C)c(=O)c12` [Compound 215, 6-(((3S,5S)-3,5-dimethylmorpholino)methyl)-2-(5-fluoro-2-(((1S,3R,4S,5R)-4-hydroxy-6,8-dioxabicyclo[3.2.1]octan-3-yl)amino)pyrimidin-4-yl)-3,5-dimethylthieno[3,2-c]pyridin-4(5H)-one], the IC50 in assay [1] lay in the range of 40 to 150 nM. Further, in assay [2], the GI50 is 450 to 3000 nM.

As to `CC(C)n1c(C(C)(C)N2CCOCC2)nc2c(F)cc(-c3nc(N[C@@H]4C[C@H]5CO[C@H](O5)[C@H]4O)ncc3Cl)cc21` [Compound 219, (1S,3R,4S,5R)-3-((5-chloro-4-(4-fluoro-1-isopropyl-2-(2-morpholinopropan-2-yl)-1H-benzo[d]imidazol-6-yl)pyrimidin-2-yl)amino)-6,8-dioxabicyclo[3.2.1]octan-4-ol], the IC50 in assay [1] is 40 to 150 nM. Also, the GI50 in assay [2] lay within 120 to 450 nM.

As to `CC(C)n1c(C(C)(C)N2CC(F)(F)C2)nc2c(F)cc(-c3nc(N[C@@H]4C[C@H]5CO[C@H](O5)[C@H]4O)ncc3Cl)cc21` [Compound 222, (1S,3R,4S,5R)-3-((5-chloro-4-(2-(2-(3,3-difluoroazetidin-1-yl)propan-2-yl)-4-fluoro-1-isopropyl-1H-benzo[d]imidazol-6-yl)pyrimidin-2-yl)amino)-6,8-dioxabicyclo[3.2.1]octan-4-ol], in assay [1], the half-inhibitory concentration (IC50) was in the range of 150 to 1000 nM. The GI50 in assay [2] was 450 to 3000 nM.

Take `Cc1c(-c2nc(N[C@@H]3C[C@H]4CO[C@H](O4)[C@H]3O)ncc2Cl)sc2c(C(C)C)cn(C(F)F)c(=O)c12` [Compound 231, 2-(5-chloro-2-(((1S,3R,4S,5R)-4-hydroxy-6,8-dioxabicyclo[3.2.1]octan-3-yl)amino)pyrimidin-4-yl)-5-(difluoromethyl)-7-isopropyl-3-methylthieno[3,2-c]pyridin-4(5H)-one]: the IC50 in assay [1] was 40 to 150 nM. Also, the GI50 in assay [2] lay in the range of 450 to 3000 nM.

On to `Cc1c(-c2nc(N[C@@H]3C[C@H]4CO[C@H](O4)[C@H]3O)ncc2F)sc2cc(CN3CCOCC3)n(C)c(=O)c12` [Compound 232, 2-(5-fluoro-2-(((1S,3R,4S,5R)-4-hydroxy-6,8-dioxabicyclo[3.2.1]octan-3-yl)amino)pyrimidin-4-yl)-3,5-dimethyl-6-(morpholinomethyl)thieno[3,2-c]pyridin-4(5H)-one], for which the IC50 in assay [1] was in the range of 150 to 1000 nM. Moreover, the GI50 in assay [2] fell in the range of 450 to 3000 nM.

For `CC(C)c1cn(C)c(=O)c2ccc(-c3nc(N[C@@H]4C[C@H]5CO[C@H](O5)[C@H]4O)ncc3Cl)cc12` [Compound 236, 6-(5-chloro-2-(((1S,3R,4S,5R)-4-hydroxy-6,8-dioxabicyclo[3.2.1]octan-3-yl)amino)pyrimidin-4-yl)-4-isopropyl-2-methylisoquinolin-1(2H)-one], the IC50 in assay [1] is 150 to 1000 nM. The GI50 in assay [2] fell in the range of 450 to 3000 nM.

`CC(C)c1cc2cc(-c3nc(N[C@@H]4C[C@H]5CO[C@H](O5)[C@H]4O)ncc3Cl)ccc2c(=O)n1C` [Compound 237, 6-(5-chloro-2-(((1S,3R,4S,5R)-4-hydroxy-6,8-dioxabicyclo[3.2.1]octan-3-yl)amino)pyrimidin-4-yl)-3-isopropyl-2-methylisoquinolin-1(2H)-one]: in assay [1], the IC50 fell in the range of 40 to 150 nM. Also, in assay [2], the GI50 was in the range of 450 to 3000 nM.

In the case of `CC(C)n1c(C2CC(F)C2)nc2c(F)cc(-c3nc(N[C@@H]4C[C@H]5CO[C@H](O5)[C@H]4O)ncc3Cl)cc21` (stereo partly drawn) [Compound 242, (1S,3R,4S,5R)-3-((5-chloro-4-(4-fluoro-2-((1s,3S)-3-fluorocyclobutyl)-1-isopropyl-1H-benzo[d]imidazol-6-yl)pyrimidin-2-yl)amino)-6,8-dioxabicyclo[3.2.1]octan-4-ol], the IC50 in assay [1] was ≤ 40 nM. For the same compound, the GI50 in assay [2] fell in the range of 120 to 450 nM.

On to `CC(C)n1c(C2CC(O)C2)nc2c(F)cc(-c3nc(N[C@@H]4C[C@H]5CO[C@H](O5)[C@H]4O)ncc3Cl)cc21` (stereo partly drawn) [Compound 244, (1S,3R,4S,5R)-3-((5-chloro-4-(4-fluoro-2-((1s,3S)-3-hydroxycyclobutyl)-1-isopropyl-1H-benzo[d]imidazol-6-yl)pyrimidin-2-yl)amino)-6,8-dioxabicyclo[3.2.1]octan-4-ol], for which the IC50 in assay [1] is 40 to 150 nM. The GI50 in assay [2] was in the range of 120 to 450 nM.

With `CC(C)c1c(C(C)(C)O)cnc2c(F)cc(-c3nc(N[C@@H]4C[C@H]5CO[C@H](O5)[C@H]4O)ncc3Cl)cc12` [Compound 250, (1S,3R,4S,5R)-3-((5-chloro-4-(8-fluoro-3-(2-hydroxypropan-2-yl)-4-isopropylquinolin-6-yl)pyrimidin-2-yl)amino)-6,8-dioxabicyclo[3.2.1]octan-4-ol], in assay [1], the half-maximal inhibitory concentration (IC50) is ≤ 40 nM. Further, the GI50 in assay [2] was ≤ 120 nM.

Take `CC(C)(O)c1ccnc2c(F)cc(-c3nc(N[C@@H]4C[C@H]5CO[C@H](O5)[C@H]4O)ncc3Cl)cc12` [Compound 251, (1S,3R,4S,5R)-3-((5-chloro-4-(8-fluoro-4-(2-hydroxypropan-2-yl)quinolin-6-yl)pyrimidin-2-yl)amino)-6,8-dioxabicyclo[3.2.1]octan-4-ol]: the half-maximal inhibitory concentration (IC50) in assay [1] is 40 to 150 nM. Moreover, in assay [2], the GI50 was ≤ 120 nM.

On to `CC(C)(O)c1cnc2c(F)cc(-c3nc(N[C@@H]4C[C@H]5CO[C@H](O5)[C@H]4O)ncc3Cl)cc2c1` [Compound 253, (1S,3R,4S,5R)-3-((5-chloro-4-(8-fluoro-3-(2-hydroxypropan-2-yl)quinolin-6-yl)pyrimidin-2-yl)amino)-6,8-dioxabicyclo[3.2.1]octan-4-ol], for which the 50% inhibitory concentration (IC50) in assay [1] lay in the range of 150 to 1000 nM. Moreover, the GI50 in assay [2] lay within 120 to 450 nM.

With `CC(C)(O)c1cnc2c(F)cc(-c3nc(N[C@@H]4C[C@H]5CO[C@H](O5)[C@H]4O)ncc3F)cc2c1` [Compound 254, (1S,3R,4S,5R)-3-((5-fluoro-4-(8-fluoro-3-(2-hydroxypropan-2-yl)quinolin-6-yl)pyrimidin-2-yl)amino)-6,8-dioxabicyclo[3.2.1]octan-4-ol], the IC50 in assay [1] lay within 150 to 1000 nM. The GI50 in assay [2] was in the range of 120 to 450 nM.
